Reference: patent US12637468B2, “Substituted [1,2,4]triazolo[4,3-b]pyridazines as GABAA receptor modulators” (SHANGHAI SIMR BIOTECHNOLOGY CO., LTD., priority 2019, dated 2026)

Test: Rat liver microsome stability (RLM) experiment
Type: in vitro ADME
Settings: rat liver microsomal stability, Table 4; 0.5 mg protein/mL, NADPH, 37° C., 0-45 min
Experimental: Effect embodiment 3 Rat liver microsome stability (RLM) experiment
Rat liver microsomes (Xenotech, item No. R1000, lot No. 1310030), 100 mM potassium phosphate buffer solution (pH 7.4), 10 mM magnesium chloride.
Compound preparation: 5 μL of compound DMSO mother liquor (10 mM) was added to 495 μL of methanol to obtain an intermediate solution with a compound concentration of 100 μM. Then 50 μL of the intermediate solution was taken and dissolved in 450 μL of potassium phosphate buffer solution to obtain a test solution with a final concentration of 10 μM.
NADPH regeneration system (concentration of isocitrate dehydrogenase 1 unit/mL).
Liver microsomes (final concentration 0.5 mg protein/mL).
Reaction termination solution: cold acetonitrile containing 100 ng/mL Tolbutamide and 100 ng/mL Labetalol as an internal standard.
• (1) Preparation of buffer solution: • Buffer solution A: 1.0 L of 0.1 M potassium phosphate buffer solution containing 1.0 mM EDTA • Buffer solution B: 1.0 L of 0.1 M dipotassium phosphate buffer solution containing 1.0 mM EDTA • Buffer solution C: 0.1 M potassium phosphate buffer, 1.0 mM EDTA, pH 7.4, titrated with 700 mL of buffer solution B and buffer solution A, monitored by pH meter. • (2) Preparation of reference substance (ketanserin) and concentration of administration solution of the test substance:
[…]: […] 10 mM DMSO reference substance stock solution and test substance stock solution were added to 190 μL of ACN, respectively. 1.5 μM administration solution (containing 0.75 mg/mL liver microsomes): […] administration solution and 18.75 μL of 20 mg/mL liver microsomes were added to 479.75 μL of buffer C on a wet ice. • (3) NADPH was added to buffer solution C to obtain a NADPH stock solution (6 mM). • (4) 30 μL of 1.5 μM administration solution (containing 0.75 mg/mL of liver microsomes) was taken on the wet ice and added to the wells of the test plate at different time points (0-, 5-, 15-, 30-, 45-min), respectively. • (5) Firstly, 135 μL of ACN containing IS was added to the wells of a 0 min test plate, and then 15 μL of the NADPH stock solution (6 mM) was added. • (6) The test plate at other time points and the NADPH stock solution were pre-heated in a 37° C. water bath for 5 minutes. • (7) 15 μL of the NADPH stock solution (6 mM) was taken and added to a pre-incubated test plate, and the reaction was started and timed. • (8) At 5 min, 15 min, 30 min and 45 min, 135 μL of CAN containing IS was added to the corresponding test plate respectively, and the test was completed. • (9) Test plates were shaken with a shaker (IKA, MTS 2/4) for 10 min (600 rpm/min) and then centrifuged for 15 min (Thermo Multifuge×3R, 5594 g). • (10) 50 μL of supernatant from each well was added to a 96-well sample plate containing 50 μL of ultrapure water (Millipore, ZMQS50F01), and the samples were analyzed by LC/MS.

| RLM [µL/min/mg] | Compound |
| --- | --- |
| 22 | COc1cc2nnc(-c3cc(C)on3)n2nc1OCc1ccc2c(n1)CCN(C1CCOCC1)C2 [Embodiment 186] |
| 10 | COc1cc2nnc(-c3cc(C)on3)n2nc1OCc1ccc2c(n1)CN(C1CCOCC1)C2 [Embodiment 253] |
| 10 | COCc1cn2nc(COc3nn4c(-c5cc(C)on5)nnc4cc3OC)ccc2n1 [Embodiment 213] |
| 15 | COc1cc2nnc(-c3cc(C)on3)n2nc1OCc1ccc2c(n1)CCN(Cc1cc(C)on1)C2 [Embodiment 187] |

The next lines start with the compound.

| Compound | RLM [µL/min/mg] |
| --- | --- |
| COc1cc2nnc(-c3cc(C)on3)n2nc1OCc1ccc(OC2CCOC2)nn1 (centres unmarked) [Embodiment 154] | 1 |
| COc1cc2nnc(-c3cc(C)on3)n2nc1OCc1ccc2c(n1)CN(C)C2 [Embodiment 160, 3-(7-Methoxy-6-((6-methyl-6,7-dihydro-5H-pyrrolo[3,4-b]pyridin-2-yl)methoxy)-[1,2,4]triazolo[4,3-b]pyridazin-3-yl)-5-methylisoxazole] | 6 |
| COCc1ccc(COc2nn3c(-c4cc(C)on4)nnc3cc2OC)nn1 [Embodiment 151] | 1 |
| COCCOCc1ccc(COc2nn3c(-c4cc(C)on4)nnc3cc2OC)nn1 [Embodiment 166] | 0 |
| COc1cc2nnc(-c3cc(C)on3)n2nc1OCc1ccc2c(n1)CCN(C(CO)CO)C2 [Embodiment 185] | 9 |
| COc1cc2nnc(-c3cc(C)on3)n2nc1OCc1ccc(C2(F)CN(C3COC3)C2)cn1 [Embodiment 128] | 6 |
| COc1cc2nnc(-c3cc(C)on3)n2nc1OCc1ccc2c(n1)CCN(C1COC1)C2 [Embodiment 84, 3-(7-Methoxy-6-((6-(oxetan-3-yl)-5,6,7,8-tetrahydro-1,6-naphthyridin-2-yl)methoxy)-[1,2,4]triazolo[4,3-b]pyridazin-3-yl)-5-methylisoxazole] | 0 |
| COc1cc2nnc(-c3cc(C)on3)n2nc1OCc1ccc(OC2COC2)nn1 [Embodiment 153] | 5 |
| COc1cc2nnc(-c3cc(C)on3)n2nc1OCc1ccc(OC2CCOCC2)nn1 [Embodiment 152] | 23 |
| COCCCOc1ccc(COc2nn3c(-c4noc(C)n4)nnc3cc2OC)nn1 [Embodiment 129] | 14 |
